Measured values from ChEMBL document CHEMBL1201862, “PubChem BioAssay data set” (2004).
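Assay format: 96-well plates, 48-hour exposure. GI50 = concentration required for 50% inhibition of growth.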 Active and inactive are the calls of the source. Cut-off read from the data, not from the text of the source: active = GI50 up to about 1.1 µM and inactive = higher.

Assays:
Assay in all cases: NCI-60 cell line screen, 48 h
A549 = system: A549
EKVX = system: EKVX
HCT-116 = system: HCT-116
KM12 = system: KM12
LOX IMVI = system: LOX IMVI
MOLT-4 = system: MOLT-4
NCI-H23 = system: NCI-H23
NCI-H460 = system: NCI-H460
OVCAR-3 = system: OVCAR-3
OVCAR-5 = system: OVCAR-5
SF-268 = system: SF-268
SF-295 = system: SF-295
SF-539 = system: SF-539
SNB-19 = system: SNB-19
U-251 = system: U-251
UACC-62 = system: UACC-62
UO-31 = system: UO-31
A498 = system: A498
HCC 2998 = system: HCC 2998
SK-MEL-2 = system: SK-MEL-2

Measured: GI50

CSc1nc(N)c2c(-c3ccccc3)c3c(nc2n1)CCCC3
inactive: A549 > 100 µM | EKVX > 100 µM | HCT-116 > 100 µM | KM12 > 100 µM | LOX IMVI > 100 µM | MOLT-4 > 100 µM | NCI-H23 > 100 µM | NCI-H460 > 100 µM | OVCAR-3 > 100 µM | OVCAR-5 > 100 µM | SF-268 > 10 µM | SF-295 > 100 µM | SF-539 13.4 µM | SNB-19 > 100 µM | U-251 > 100 µM | UACC-62 > 100 µM | UO-31 3.38 µM

COCCOCOc1ccc(OCc2ccccc2)cc1
inactive: A498 > 58.5 µM | A549 > 100 µM | EKVX > 55.7 µM | HCC 2998 > 82.6 µM | HCT-116 > 100 µM | KM12 > 100 µM | LOX IMVI > 100 µM | MOLT-4 34 µM | NCI-H23 > 71 µM | NCI-H460 > 100 µM | OVCAR-3 > 100 µM | OVCAR-5 > 100 µM | SF-268 > 100 µM | SF-295 > 100 µM | SF-539 > 100 µM | SK-MEL-2 > 82.6 µM | SNB-19 > 100 µM | U-251 > 85.9 µM | UACC-62 > 100 µM | UO-31 > 100 µM

Cc1ccc(NC(=O)c2cccc([N+](=O)[O-])c2O)c(C)c1
inactive: A498 12.9 µM | A549 15.9 µM | EKVX 17.1 µM | HCC 2998 40.4 µM | HCT-116 28.6 µM | KM12 27.7 µM | LOX IMVI 11.9 µM | MOLT-4 19.3 µM | NCI-H23 23 µM | NCI-H460 26.4 µM | OVCAR-3 5.7 µM | OVCAR-5 20.5 µM | SF-268 34.8 µM | SF-295 20.1 µM | SF-539 14.5 µM | SK-MEL-2 7.73 µM | SNB-19 24.2 µM | U-251 24 µM | UACC-62 4.03 µM | UO-31 3.31 µM

Cc1ccccc1-c1nc2c(C(=O)NCCN(C)C)cccc2[nH]1
inactive: A498 42.3 µM | A549 39.4 µM | EKVX > 100 µM | HCC 2998 40.3 µM | HCT-116 29.6 µM | KM12 52.8 µM | LOX IMVI 38.3 µM | MOLT-4 27 µM | NCI-H23 57.7 µM | NCI-H460 30.2 µM | OVCAR-3 65.6 µM | OVCAR-5 40.2 µM | SF-268 50.7 µM | SF-295 34.1 µM | SF-539 41.4 µM | SK-MEL-2 > 85.3 µM | SNB-19 48.6 µM | U-251 34.5 µM | UACC-62 40.3 µM | UO-31 20 µM

CC(C)(C)OC(=O)NCC(=O)NC1c2ccsc2/C(=N/O)[C@H]1O (stereo not given in full)
inactive: A498 > 100 µM | A549 > 100 µM | EKVX > 100 µM | HCC 2998 93.3 µM | HCT-116 > 100 µM | LOX IMVI > 100 µM | MOLT-4 > 100 µM | NCI-H23 > 100 µM | NCI-H460 > 100 µM | OVCAR-3 > 100 µM | OVCAR-5 > 100 µM | SF-295 > 100 µM | SF-539 > 100 µM | SK-MEL-2 > 100 µM | SNB-19 > 100 µM | U-251 > 100 µM | UACC-62 > 100 µM | UO-31 > 100 µM

O=C1OC(c2ccc(O)c(F)c2)(c2ccc(O)c(F)c2)c2cccc3cccc1c23
inactive: A498 > 25 µM | A549 > 25 µM | EKVX 5.12 µM | HCT-116 > 25 µM | KM12 > 25 µM | LOX IMVI > 25 µM | MOLT-4 5.35 µM | NCI-H23 > 25 µM | NCI-H460 > 25 µM | OVCAR-3 5.9 µM | OVCAR-5 > 25 µM | SF-268 > 25 µM | SF-295 23.2 µM | SF-539 > 25 µM | SK-MEL-2 > 25 µM | SNB-19 > 25 µM | U-251 > 25 µM | UACC-62 17.5 µM | UO-31 > 25 µM

COc1cc2c(cc1OC)C(C1(O)CCCCC1)NCC2 (stereo not given)
inactive: EKVX > 100 µM | HCC 2998 > 100 µM | HCT-116 > 100 µM | KM12 > 100 µM | LOX IMVI > 100 µM | MOLT-4 > 100 µM | NCI-H23 > 100 µM | NCI-H460 > 100 µM | OVCAR-3 > 100 µM | OVCAR-5 > 100 µM | SF-268 > 100 µM | SF-295 > 100 µM | SK-MEL-2 > 100 µM | U-251 > 100 µM | UACC-62 > 100 µM | UO-31 > 100 µM
